Source: paper PMC3914206

Legend:
panel of 442 kinases [1] = molecular target: T1, panel of 442 kinases (Homo sapiens, UniProt Q9UKE5); type: binding; details: kinase TNIK; compound concentration 10 µM
T1 construct: purchased KINOMEscan
Description: (§1) We assessed the selectivity of members of this scaffold using the KINOMEscan methodology across a near comprehensive panel of 442 kinases [[18,27]].

panel of 442 kinases [2] = molecular target: T2, panel of 442 kinases (Homo sapiens, UniProt Q99640); type: binding; details: Compound Concentration 10 µM
T2 construct: purchased KINOMEscan
T2 sequence (Q99640 1-499): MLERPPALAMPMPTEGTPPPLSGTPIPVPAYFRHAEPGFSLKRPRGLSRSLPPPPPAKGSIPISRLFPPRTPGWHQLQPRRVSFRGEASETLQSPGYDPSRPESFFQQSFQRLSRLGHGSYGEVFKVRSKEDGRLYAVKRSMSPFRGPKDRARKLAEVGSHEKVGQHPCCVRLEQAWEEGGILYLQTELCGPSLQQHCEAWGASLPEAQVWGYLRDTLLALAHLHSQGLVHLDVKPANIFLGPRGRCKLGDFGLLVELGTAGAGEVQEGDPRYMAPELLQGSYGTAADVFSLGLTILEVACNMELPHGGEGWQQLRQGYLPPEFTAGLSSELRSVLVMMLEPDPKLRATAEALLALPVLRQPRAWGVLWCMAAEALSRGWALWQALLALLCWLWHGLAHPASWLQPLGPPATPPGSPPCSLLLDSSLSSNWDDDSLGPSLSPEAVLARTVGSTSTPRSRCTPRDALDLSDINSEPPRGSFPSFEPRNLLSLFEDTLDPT
Description: as §1

T1 sequence (Q9UKE5 whole entry): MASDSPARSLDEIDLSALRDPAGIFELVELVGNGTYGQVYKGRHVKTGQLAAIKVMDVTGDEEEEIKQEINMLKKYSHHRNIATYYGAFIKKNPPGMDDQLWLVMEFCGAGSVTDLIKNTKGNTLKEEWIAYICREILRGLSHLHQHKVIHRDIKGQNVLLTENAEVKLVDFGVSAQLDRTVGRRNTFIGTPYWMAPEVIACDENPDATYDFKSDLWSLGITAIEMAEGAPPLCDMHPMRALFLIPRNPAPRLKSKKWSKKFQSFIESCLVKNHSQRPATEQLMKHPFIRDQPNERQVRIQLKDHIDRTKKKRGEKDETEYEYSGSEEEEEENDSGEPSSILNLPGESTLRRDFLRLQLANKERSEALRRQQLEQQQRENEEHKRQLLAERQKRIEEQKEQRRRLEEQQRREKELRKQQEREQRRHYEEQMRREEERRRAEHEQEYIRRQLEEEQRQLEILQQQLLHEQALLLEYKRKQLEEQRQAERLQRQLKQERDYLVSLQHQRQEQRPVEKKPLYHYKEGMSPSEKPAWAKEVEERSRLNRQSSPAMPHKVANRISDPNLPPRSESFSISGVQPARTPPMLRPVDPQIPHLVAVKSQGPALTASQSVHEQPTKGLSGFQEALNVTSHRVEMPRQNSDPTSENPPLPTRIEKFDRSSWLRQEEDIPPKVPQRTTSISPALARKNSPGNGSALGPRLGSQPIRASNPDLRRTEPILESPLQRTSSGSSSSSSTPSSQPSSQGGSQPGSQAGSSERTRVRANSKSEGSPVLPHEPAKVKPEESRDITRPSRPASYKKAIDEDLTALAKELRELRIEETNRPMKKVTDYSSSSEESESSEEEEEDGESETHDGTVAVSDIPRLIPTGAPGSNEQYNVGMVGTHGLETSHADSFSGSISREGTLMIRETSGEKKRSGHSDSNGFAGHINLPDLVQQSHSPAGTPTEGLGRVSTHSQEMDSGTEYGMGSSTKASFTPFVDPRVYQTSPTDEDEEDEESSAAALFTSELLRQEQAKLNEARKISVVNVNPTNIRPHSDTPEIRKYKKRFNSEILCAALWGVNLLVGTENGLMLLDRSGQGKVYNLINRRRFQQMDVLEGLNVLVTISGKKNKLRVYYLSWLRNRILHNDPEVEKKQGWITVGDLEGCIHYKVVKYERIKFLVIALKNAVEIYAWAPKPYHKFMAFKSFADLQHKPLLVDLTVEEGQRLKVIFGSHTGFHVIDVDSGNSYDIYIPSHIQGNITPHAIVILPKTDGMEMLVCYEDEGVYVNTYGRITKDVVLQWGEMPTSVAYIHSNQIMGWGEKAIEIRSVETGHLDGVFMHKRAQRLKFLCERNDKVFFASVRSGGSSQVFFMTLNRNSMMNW

Row | SMILES | % Ctrl, TNIK (panel of 442 kinases [1]) | KINOMEscan: PKMYT1 (panel of 442 kinases [2])
1 | COc1cc(C(=O)N2CCC(N3CCN(C)CC3)CC2)ccc1Nc1ncc2c(n1)N(C)c1ccccc1C(=O)N2C [15 (LRRK2-IN-1)] | 100 % Ctrl | 80
2 | COc1cc(C(=O)N2CCC(N3CCN(C)CC3)CC2)ccc1Nc1ncc2c(n1)N1CCc3cccc(c31)C(=O)N2C [Compound 24] | 56 % Ctrl | 70
3 | COc1cc(C(=O)N2CCC(N3CCN(C)CC3)CC2)ccc1Nc1ncc2c(n1)N(C1CCCC1)c1ccccc1C(=O)N2C [Compound 25, 11-cyclopentyl-2-((2-methoxy-4-(4-(4-methylpiperazin-1-yl)piperidine-1-carbonyl)phenyl)amino)-5-methyl-5H-benzo[e]pyrimido[5,4-b][1,4]diazepin-6(11H)-one] | 100 % Ctrl | 100
4 | CCOc1cc(C(=O)N2CCC(N3CCN(C)CC3)CC2)ccc1Nc1ncc2c(n1)N(C1CCCC1)c1ccccc1C(=O)N2C [Compound 26] | 94 % Ctrl | 100
